Assays:
[1] = test system: H1975 non-small cell lung cancer (NSCLC) cells; assay: CCK-8 cell viability assay, H1975; type: cell-based; settings: Homo sapiens, NCI-H1975, CCK-8, 72 h, mean ± SD of three experiments, read-out: Antiproliferative Activity IC50, H1975
Protocol: (§1) The H1975 human NSCLC cell line was obtained from ATCC. A431 human epithelial carcinoma and HBE human bronchial epithelial cell lines were kind gifts from Fuheng Biological Company Ltd. (Shanghai, China) and YuXi Biotech Company (Jiangsu, China), respectively. The cells were maintained in RPMI 1640 or DMEM (Gibco®, Thermo Fisher Scientific Inc., Waltham, MA, USA) containing 10% fetal bovine serum (FBS, Gibco®) and 1% penicillin-streptomycin (Beyotime Company, Shanghai, China) at 37 °C in a 5% CO2 incubator.
(§2) A total of 3000 cells of H1975 or HBE and 5000 cells of A431 were seeded for each well into a 96-well plate and cultured in 10% FBS respective growth medium overnight. Various concentrations (0–20 μM) of each compound were then added in triplicate to the cells. After 72 h of incubation, 10 μL of CCK-8 solution (5.0 mg/mL, Biotool Company, Kirchberg, Switzerland) was added to each well and the cells continued to culture for 4 h. The optical density (OD) was determined at 450 nm with a microplate reader (Thermo Fisher Scientific, Waltham, MA, USA). IC50 values were calculated employing GraphPad Prism version 8.0.

[2] = test system: A431 human epithelial carcinoma cells; assay: CCK-8 cell viability assay, A431; type: cell-based; settings: A-431, CCK-8, 72 h, mean ± SD of three experiments, read-out: Antiproliferative Activity IC50, A431
Protocol: as §1, §2

[3] = test system: normal human bronchial epithelial cells (HBE); assay: CCK-8 cellular selectivity assay, HBE; type: cell-based; settings: for IC50: Homo sapiens, Epithelial cell, HBE normal cells, CCK-8, 72 h, mean ± SD of three experiments, read-out: Antiproliferative Activity IC50, HBE
Protocol: as §1, §2

H1975 cells [4] = assay: Scratch (cell migration) assay; type: cell-based, human; settings: H1975, 0.1, 0.5, and 1 μM, 24 h
Protocol: H1975 cells were seeded in 6-well plates and incubated for 12 h. When cells were grown to 90–100% confluency in a monolayer, wounds were generated using a pipette tip. […] The images were captured to record the status of cells near the scratch lines at the beginning and after 12 and 24 h.

FAK kinase = target: T1, FAK kinase (Homo sapiens, UniProt Q05397); assay: ADP-Glo kinase enzymatic assay; type: biochemical; settings: mean ± SD of three independent experiments
T1 construct: purchased Promega Corporation V9301
Protocol: The ADP-Glo™ Kinase Assay Kit and FAK Kinase Enzyme (Catalog. V9301) were purchased from Promega Corporation (Madison, WI, USA). The experiments were performed according to the detailed and complete protocols of the manufacturer. Briefly, the concentration of FAK determined by optimization experiments was 0.1 μg/μL. Suitable concentration gradients from 1.6 to 1000 nM were set for all the tested compounds. A kinase reaction buffer, a substrate/ATP mixture, and a FAK solution were prepared right before use. The 5 μL kinase reaction consisted of 1 μL of compound solution, 2 μL of substrate/ATP mixture, and 2 μL of FAK solution. The control without enzyme was provided by 3 μL of kinase reaction buffer and 2 μL of substrate/ATP mixture. The negative control was prepared using 1 μL of kinase reaction buffer instead of a compound solution. The kinase reactions were added to a 384-well plate and incubated at room temperature for 60 min, then 5 μL of ADP-Glo™ Reagent was added to stop the kinase reaction and deplete the unconsumed ATP, and incubated at room temperature for 40 min. After adding 10 μL of Kinase Detection Reagent, the plate was incubated at room temperature for 30 min and then luminescence was recorded (integration time 0.5–1 s) on a TriStar® LB942 Multimode Microplate Reader (BERTHOLD TECHNOLOGIES GmbH & Co. KG., Bad Wildbad, Germany). Curve fitting and data presentations were performed using GraphPad Prism version 8.0.

H1975 cells [5] = assay: Annexin V-FITC/PI flow cytometry apoptosis assay; type: cell-based, human; settings: H1975, 0.1, 0.5, 1 μM, 48 h
Protocol: (§3) H1975 cells were seeded at a density of 1 × 10^5 cells/well into 6-well plates for 24 h and then exposed to different concentrations of inhibitors for 48 h. The cells were harvested. (1) The cells were stained with Annexin V-FITC (5 µL)/propidium iodide (5 µL), and the samples were detected and flow cytometry (Becton-Dickinson, Franklin Lakes, NJ, USA) was performed to quantify the number of apoptotic cells. (2) The cells were stained with propidium iodide (PI) in the dark for 30 min, and then analyzed for cell cycle distribution by the flow cytometry assay.

H1975 cells [6] = assay: Cell cycle analysis by PI flow cytometry; type: cell-based, human; settings: 48 h
Protocol: as §3

H1975 cells [7] = assay: AO/EB staining assay; type: cell-based, human; settings: H1975, 0.1, 0.5, and 1 μM
Protocol: H1975 cells at a density of 1 × 10^5 cells/well in 6-well plates were incubated for 24 h. After discarding the original culture medium, different concentrations of inhibitors were used. The cells were incubated for 48 h and then washed with phosphate-buffered saline (PBS) three times. Cells were subsequently incubated in the dye mix containing 1.0 µg/mL of AO and 1.0 µg/mL of EB in PBS at 37 °C for 5 min, and then washed with PBS. The apoptotic, necrotic, and live cells were examined under the fluorescent inverted microscope (OLYMPUS, Tokyo, Japan).

T1 sequence (Q05397 393-698 limits assumed): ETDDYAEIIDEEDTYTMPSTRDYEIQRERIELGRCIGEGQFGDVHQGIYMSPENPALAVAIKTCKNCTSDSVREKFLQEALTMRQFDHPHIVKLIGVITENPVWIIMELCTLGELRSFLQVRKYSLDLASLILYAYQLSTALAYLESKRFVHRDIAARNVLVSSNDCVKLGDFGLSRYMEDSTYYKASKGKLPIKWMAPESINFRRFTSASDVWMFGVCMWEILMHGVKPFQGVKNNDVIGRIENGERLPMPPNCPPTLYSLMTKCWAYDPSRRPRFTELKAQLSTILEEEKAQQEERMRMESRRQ

IC50 [1] [nM] | IC50 [2] [nM] | IC50 (FAK kinase) [nM] | Compound | IC50 [3] [nM] | Cell migration (in words) (H1975 cells [4]) | SI Values (selectivity index) ([3]; IC50 for HBE cell line/IC50 for H1975 cell line) | Apoptosis induction (in words) (H1975 cells [5]) | %G1 (G0/G1 phase) cells (H1975 cells [6]; H1975, 1.0 μM) [%] | %G2 (G2/M phase) cells (H1975 cells [6]; H1975, 1.0 μM) [%] | %S phase cells (H1975 cells [6]; H1975, 1.0 μM) [%] | Cell cycle arrest (in words) (H1975 cells [6]; H1975, 0.1, 0.5, and 1 μM) | Apoptotic morphology (in words) (H1975 cells [7])
141 ± 41 | 392 ± 53 |  | CNC(=O)c1ccccc1Nc1nc(Nc2ccc(N3CCOCC3)cc2OC)ncc1Cl [TAE226, reference compound] | > 20000 | reduced migration distances |  |  |  |  |  |  | 
44 ± 11 | 119 ± 36 | 47 ± 6 | O=C(NCCO)c1ccccc1Nc1nc(Nc2ccc(CN3CCOCC3)cc2)ncc1Cl [Compound 8a, 2-((5-Chloro-2-((4-(morpholinomethyl)phenyl)amino)pyrimidin-4-yl)amino)-N-(2-hydroxyethyl)benzamide] | 1040 ± 266 | reduced migration distances | 24 | substantially increased the extent of apoptosis in H1975 cells in a dose-dependent manner | 39.06 | 37.29 | 23.65 | induced cell cycle arrest in S/G2 phase in a dose-dependent manner | exhibited certain morphological phenomena characteristic of apoptosis
